Test results from ChEMBL document CHEMBL5154644, “Design, Synthesis, and Structure-Activity Relationship Optimization of Pyrazolopyrimidine Amide Inhibitors of Phosphoinositide 3-Kinase γ (PI3Kγ)” (J Med Chem, 2022).

How the values were obtained:
[1] = molecular target: Phosphatidylinositol 4,5-bisphosphate 3-kinase catalytic subunit alpha isoform (Homo sapiens, UniProt P42336); assay: Inhibition of PI3Kalpha (unknown origin) using PIP2 as substrate preincubated for 1 hr followed by substrate addition and measured after 60 mins in presence of ATP by ADP-glo assay
Phosphatidylinositol 4,5-bisphosphate 3-kinase catalytic subunit alpha isoform, sequence (P42336 whole entry, canonical isoform): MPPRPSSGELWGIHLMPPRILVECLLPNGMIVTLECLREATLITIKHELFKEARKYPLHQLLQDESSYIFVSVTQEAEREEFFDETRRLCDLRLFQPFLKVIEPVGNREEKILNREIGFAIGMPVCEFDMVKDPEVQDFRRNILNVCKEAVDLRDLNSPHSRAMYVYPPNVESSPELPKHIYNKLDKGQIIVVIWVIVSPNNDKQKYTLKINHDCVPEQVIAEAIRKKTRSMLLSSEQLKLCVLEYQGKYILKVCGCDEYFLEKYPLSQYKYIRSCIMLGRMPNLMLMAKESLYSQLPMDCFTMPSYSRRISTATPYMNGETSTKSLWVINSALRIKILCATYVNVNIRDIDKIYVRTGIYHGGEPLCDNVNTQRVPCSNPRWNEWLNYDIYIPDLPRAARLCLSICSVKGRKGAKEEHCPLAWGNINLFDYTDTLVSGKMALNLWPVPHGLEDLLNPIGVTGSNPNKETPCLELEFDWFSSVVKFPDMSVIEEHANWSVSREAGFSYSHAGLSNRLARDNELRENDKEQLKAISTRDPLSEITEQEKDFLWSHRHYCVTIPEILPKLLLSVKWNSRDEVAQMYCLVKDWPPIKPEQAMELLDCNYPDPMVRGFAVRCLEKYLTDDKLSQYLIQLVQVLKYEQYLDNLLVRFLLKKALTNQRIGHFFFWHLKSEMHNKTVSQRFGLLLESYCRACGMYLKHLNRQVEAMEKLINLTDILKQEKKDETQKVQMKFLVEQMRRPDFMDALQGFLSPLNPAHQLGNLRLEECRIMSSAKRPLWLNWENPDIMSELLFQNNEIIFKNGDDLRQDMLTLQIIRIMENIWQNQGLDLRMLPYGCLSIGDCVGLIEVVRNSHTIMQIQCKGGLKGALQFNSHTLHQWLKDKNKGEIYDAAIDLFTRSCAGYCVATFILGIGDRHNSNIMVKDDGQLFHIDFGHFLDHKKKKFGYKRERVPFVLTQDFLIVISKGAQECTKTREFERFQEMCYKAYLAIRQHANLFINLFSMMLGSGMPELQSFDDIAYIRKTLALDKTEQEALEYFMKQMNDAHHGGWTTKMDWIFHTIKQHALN

Homo sapiens [2] = species on record: Homo sapiens; assay: Selectivity ratio of IC50 for inhibition of PI3Kalpha (unknown origin) to IC50 for inhibition of PI3Kgamma (unknown origin)
[3] = molecular target: T1, Phosphatidylinositol 4,5-bisphosphate 3-kinase catalytic subunit gamma isoform (Homo sapiens, UniProt P48736); assay: Inhibition of PI3Kgamma in SDF-1alpha stimulated human whole blood assessed as reduction in phospho-AKT kinase activity preincubated for 1 hr followed by SDF-1alpha stimulation and measured after 2 mins by flow cytometric analysis; assay type: tissue-based
T1 sequence (P48736 whole entry, canonical isoform): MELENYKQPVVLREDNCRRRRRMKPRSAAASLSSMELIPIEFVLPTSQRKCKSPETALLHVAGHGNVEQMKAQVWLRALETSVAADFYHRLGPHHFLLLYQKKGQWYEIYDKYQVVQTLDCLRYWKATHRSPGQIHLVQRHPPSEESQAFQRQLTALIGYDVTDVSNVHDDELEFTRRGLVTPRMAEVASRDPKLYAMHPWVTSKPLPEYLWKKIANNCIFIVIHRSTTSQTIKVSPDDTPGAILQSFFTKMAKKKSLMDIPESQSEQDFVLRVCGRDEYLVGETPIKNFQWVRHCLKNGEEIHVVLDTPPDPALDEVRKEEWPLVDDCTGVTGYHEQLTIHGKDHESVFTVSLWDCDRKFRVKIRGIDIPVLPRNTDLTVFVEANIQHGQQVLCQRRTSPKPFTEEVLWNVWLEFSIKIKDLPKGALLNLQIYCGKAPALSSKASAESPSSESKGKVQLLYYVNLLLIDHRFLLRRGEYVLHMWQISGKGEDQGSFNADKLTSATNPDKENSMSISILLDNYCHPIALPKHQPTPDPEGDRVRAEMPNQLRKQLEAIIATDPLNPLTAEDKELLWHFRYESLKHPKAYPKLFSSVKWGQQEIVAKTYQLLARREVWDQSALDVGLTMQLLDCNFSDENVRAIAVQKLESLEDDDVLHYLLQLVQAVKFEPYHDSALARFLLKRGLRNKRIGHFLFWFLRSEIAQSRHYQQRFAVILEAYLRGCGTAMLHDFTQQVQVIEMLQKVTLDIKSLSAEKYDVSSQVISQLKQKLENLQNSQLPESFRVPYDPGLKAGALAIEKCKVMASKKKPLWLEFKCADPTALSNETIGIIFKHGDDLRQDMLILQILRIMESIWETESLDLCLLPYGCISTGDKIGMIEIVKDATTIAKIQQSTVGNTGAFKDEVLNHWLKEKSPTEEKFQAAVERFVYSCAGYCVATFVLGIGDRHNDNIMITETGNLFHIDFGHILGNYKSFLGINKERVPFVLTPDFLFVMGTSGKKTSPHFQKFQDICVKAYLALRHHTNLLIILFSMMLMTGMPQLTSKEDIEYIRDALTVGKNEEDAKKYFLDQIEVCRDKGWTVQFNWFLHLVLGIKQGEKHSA

[4] = molecular target: T2, Phosphatidylinositol 4,5-bisphosphate 3-kinase catalytic subunit delta isoform (Homo sapiens, UniProt O00329); assay: Inhibition of PI3Kdelta (unknown origin) using PIP2 as substrate preincubated for 1 hr followed by substrate addition and measured after 60 mins in presence of ATP by ADP-glo assay
T2 sequence (O00329 whole entry): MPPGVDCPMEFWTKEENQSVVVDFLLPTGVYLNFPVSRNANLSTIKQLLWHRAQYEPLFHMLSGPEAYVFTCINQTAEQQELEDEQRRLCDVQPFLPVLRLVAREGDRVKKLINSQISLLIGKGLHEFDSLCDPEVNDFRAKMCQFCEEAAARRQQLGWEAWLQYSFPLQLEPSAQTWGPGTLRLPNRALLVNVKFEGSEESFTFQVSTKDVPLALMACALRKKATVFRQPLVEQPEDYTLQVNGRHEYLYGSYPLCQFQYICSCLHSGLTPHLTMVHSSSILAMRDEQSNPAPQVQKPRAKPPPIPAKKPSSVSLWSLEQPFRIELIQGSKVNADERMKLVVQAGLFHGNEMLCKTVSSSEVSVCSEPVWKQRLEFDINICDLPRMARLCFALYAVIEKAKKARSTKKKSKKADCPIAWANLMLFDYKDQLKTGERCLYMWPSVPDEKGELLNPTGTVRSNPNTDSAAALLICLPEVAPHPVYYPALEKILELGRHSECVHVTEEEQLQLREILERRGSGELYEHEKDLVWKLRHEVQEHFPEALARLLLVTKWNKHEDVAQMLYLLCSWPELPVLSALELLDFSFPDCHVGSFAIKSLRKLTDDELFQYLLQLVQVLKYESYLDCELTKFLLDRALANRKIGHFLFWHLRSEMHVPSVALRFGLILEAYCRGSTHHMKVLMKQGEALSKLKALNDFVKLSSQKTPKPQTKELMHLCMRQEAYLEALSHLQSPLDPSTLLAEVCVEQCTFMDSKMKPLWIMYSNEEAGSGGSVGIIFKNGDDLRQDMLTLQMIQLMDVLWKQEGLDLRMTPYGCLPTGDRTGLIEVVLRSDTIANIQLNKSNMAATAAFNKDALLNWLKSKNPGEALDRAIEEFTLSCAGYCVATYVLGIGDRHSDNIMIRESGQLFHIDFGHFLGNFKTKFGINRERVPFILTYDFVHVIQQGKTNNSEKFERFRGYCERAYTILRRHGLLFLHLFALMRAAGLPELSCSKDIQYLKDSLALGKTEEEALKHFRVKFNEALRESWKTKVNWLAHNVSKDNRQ

[5] = molecular target: T1, Phosphatidylinositol 4,5-bisphosphate 3-kinase catalytic subunit gamma isoform; assay: Inhibition of PI3Kgamma (unknown origin) using PIP2 as substrate preincubated for 1 hr followed by substrate addition and measured after 60 mins in presence of ATP by ADP-glo assay
[6] = molecular target: T1, Phosphatidylinositol 4,5-bisphosphate 3-kinase catalytic subunit gamma isoform; assay: Inhibition of PI3Kgamma (unknown origin) in […] stimulated human THP-1 cells assessed as reduction in Akt phosphorylation level at Ser473 residue preincubated for 60 mins followed by rhMCP-1 stimulation and measured after 2 mins by AlphaLisa assay; assay type: cell-based
[7] = Metabolic stability in human hepatocytes assessed as intrinsic clearance per 10^6 cells at 0.5 uM by LC-MS/MS analysis; assay type: ADME, cell-based, Hepatocyte; details: read-out: CLH
CYP3A4 = CYP3A4 (Homo sapiens, UniProt P08684); assay: in vitro; details: human liver microsomes, probe midazolam
CYP3A4, sequence (P08684 whole entry): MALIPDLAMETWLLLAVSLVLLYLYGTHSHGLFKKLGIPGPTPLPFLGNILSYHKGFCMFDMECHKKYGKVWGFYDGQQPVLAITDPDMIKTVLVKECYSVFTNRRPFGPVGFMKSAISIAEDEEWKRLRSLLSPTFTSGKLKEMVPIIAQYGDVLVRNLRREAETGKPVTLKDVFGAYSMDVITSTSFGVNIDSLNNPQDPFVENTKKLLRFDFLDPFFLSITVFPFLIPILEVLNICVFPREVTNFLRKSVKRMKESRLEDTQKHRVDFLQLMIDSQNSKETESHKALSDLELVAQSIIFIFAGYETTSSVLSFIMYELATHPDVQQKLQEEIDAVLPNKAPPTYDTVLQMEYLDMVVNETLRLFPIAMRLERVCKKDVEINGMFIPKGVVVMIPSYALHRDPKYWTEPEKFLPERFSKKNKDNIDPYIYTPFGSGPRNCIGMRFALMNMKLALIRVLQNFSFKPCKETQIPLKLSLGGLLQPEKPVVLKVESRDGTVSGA
Description: Time dependent inhibition of CYP3A4 in human liver microsomes at 10 uM using midazolam as substrate preincubated for 30 mins in presence of NADPH by LC/MS/MS analysis relative to control

[8] = Metabolic stability in rat hepatocyte assessed as intrinsic clearance per 10^8 cells at 0.5 uM by LC-MS/MS analysis; assay type: ADME, cell-based; details: hepatocytes
Homo sapiens [9] = species on record: Homo sapiens; assay: Selectivity ratio of IC50 for inhibition of PI3Kdelta (unknown origin) to IC50 for inhibition of PI3Kgamma (unknown origin)
[10] = Hepatic clearance in Sprague-Dawley rat by LC-MS/MS analysis; assay type: ADME; details: in vivo

SMILES | IC50 [1] [nM] | Ratio IC50 (Homo sapiens [2]) | IC50 [3] [nM] | IC50 [4] [nM] | IC50 [5] [nM] | IC50 [6] [nM] | hepatocyte CLint at 0.5 µM [7] [µL/min/1e6 cells] | inhibition at 30 min, 10 µM (CYP3A4) [%] | hepatocyte intrinsic clearance [8] [µL/min] | Ratio IC50 (Homo sapiens [9]) | CLH [10] [mL/min/kg]
C[C@@H](C1CC1)N1Cc2cc(-c3ccn4nc(N)c(C(=O)N[C@@H](CO)C5CC5)c4n3)cc(NS(C)(=O)=O)c2C1=O | 1200 | 1470 | 260 | 991 | 0.8 | 33 | 4.09 | 35 | < 1.2 |  | 
C[C@H](N1Cc2cc(-c3ccn4nc(N)c(C(=O)N[C@@H](CO)C5CC5)c4n3)cc(Cl)c2C1=O)C(F)(F)F | > 10000 | > 3140 | 600 | 4640 | 3.1 | 83 | 3.18 |  | 2.98 | 1460 | 
C[C@H](N1Cc2cc(-c3ccn4nc(N)c(C(=O)N[C@@H](CO)C5CC5)c4n3)cc(C3CC3)c2C1=O)C(F)(F)F | > 10000 | > 3970 | 1300 | 3980 | 2.5 | 80 | 13.3 |  | 1.69 | 1580 | 
C[C@H](N1Cc2cc(-c3ccn4nc(N)c(C(=O)N[C@@H](CO)C5CC5)c4n3)cc(NS(C)(=O)=O)c2C1=O)C(F)(F)F | 1640 | 474 | 1300 | 825 | 3.5 | 72 | 6.31 |  | 2.48 | 238 | 
C[C@H](N1Cc2cc(-c3ccn4nc(N)c(C(=O)N[C@H]5CC[C@@](C)(O)CC5)c4n3)cc(NS(C)(=O)=O)c2C1=O)C(F)(F)F | 194 | 61 | 800 | 146 | 3.2 | 31 | 2.44 |  | 3.38 | 46 | 
C[C@@H](C1CC1)N1Cc2cc(-c3ccn4nc(N)c(C(=O)NC5CC5)c4n3)cc(S(C)(=O)=O)c2C1=O | 351 | 148 |  | 560 | 2.4 | 43 | < 1.2 | 4 | < 1.2 | 236 | 88.3
C[C@@H](C1CC1)N1Cc2cc(-c3ccn4nc(N)c(C(=O)NC5CC5)c4n3)cc(S(=O)(=O)C3CC3)c2C1=O | 384 | 223 |  | 172 | 1.7 | 56 | 1.99 | 23 | < 1.2 | 100 | 41.7
Cc1cc(-c2ccn3nc(N)c(C(=O)N[C@@H]4CC[C@@H](O)C4)c3n2)cc2c1C(=O)N([C@@H](C)C1CC1)C2 | 140 | 33 |  | 123 | 4.2 | 82 | 3.26 | 14 | 24.6 | 29 | 71.7
Cc1cc(-c2ccn3nc(N)c(C(=O)N[C@@H](CO)C4CC4)c3n2)cc2c1C(=O)N([C@@H](C)C1CC1)C2 | > 10000 | > 3440 |  | > 10000 | 2.9 | 133 | 2.03 | 7 | 1.31 | > 3440 | 8.3
C[C@H](N1Cc2cc(-c3ccn4nc(N)c(C(=O)N[C@@H](CO)C5CC5)c4n3)cc(OC(F)F)c2C1=O)C(F)(F)F | 1320 | 385 | 600 | 419 | 3.4 | 68 | 7.17 |  | 8.28 | 122 | 
CCS(=O)(=O)c1cc(-c2ccn3nc(N)c(C(=O)NC4CC4)c3n2)cc2c1C(=O)N([C@@H](C)C1CC1)C2 | 808 | 170 |  | 835 | 4.8 | 67 | 2.03 | 16 | < 1.2 | 175 | 68.3
C[C@@H](C1CC1)N1Cc2cc(-c3ccn4nc(N)c(C(=O)NC5CC5)c4n3)cc(OC(F)(F)F)c2C1=O | 1480 | 411 |  | 1860 | 3.6 | 58 | 1.67 | 20 | < 1.2 | 518 | 8.3
C[C@@H](C1CC1)N1Cc2cc(-c3ccn4nc(N)c(C(=O)NC5CC5)c4n3)cc(C(F)(F)F)c2C1=O | 1580 | 443 |  | 1950 | 3.6 | 103 | < 1.2 | 7 | < 1.2 | 547 | 5
Cc1cc(-c2ccn3nc(N)c(C(=O)NC4COC4)c3n2)cc2c1C(=O)N([C@@H](C)C1CC1)C2 | 833 | 464 |  | 698 | 1.8 | 156 | 6.21 | 12 | 4.59 | 388 | 33
